# Experimental data: patent US10874686B2, “Anthranilyl-adenosinemonosulfamate analogs and uses thereof” (Memorial Sloan-Kettering Cancer Center, priority 2015, dated 2020)
# Where two headings read alike, the source gives them in different places.
# Tests used:
# [1] = system: pyocyanin production by P. aeruginosa strain PA14; assay: Pyocyanin production by P. aeruginosa strain PA14; type: cell-based, Pseudomonas aeruginosa; conditions: 1 mM, 24 h
# Description: Production of pyocyanin by P. aeruginosa strain PA14 was performed in triplicate in roundbottom glass tubes containing 5-mL cultures in LB medium. Tubes tilted at ˜60° angle were incubated at 37° C. in an orbital shaker at 200 rpm. Cultures were inoculated with 15-h preculture in LB in order to obtain a starting OD600 nm=0.05, with or without inhibitors added. At 24 h, 1 mL of each culture was thoroughly vortexed and centrifuged (12,000 g, 5 min). Next, 0.8 mL of the supernatant was removed and the OD690 nm was measured. The ratio of the absorbance compound-treated or MvfR^− cultures and untreated controls was calculated to provide the data in FIG. 7B.
# The ability of these PqsA inhibitors to block production of the virulence factor pyocyanin was investigated. […] See, e.g., Starkey et al. (2014) PLoS Pathog. 10, e1004321; Storz et al. (2012) J. Am. Chem. Soc. 134, 16143; Thomann et al. (2016) ACS Chem. Biol. 11, 1279. Haloanthranilate substrate analogues have been reported to inhibit both quinolone and pyocyanin production but may impact multiple targets in this complex signaling network. This is indicative of the complex relationship between HHQ and PQS quinolone biosynthesis, induction of the MvfR regulon, and production of pyocyanin.
# [2] = Pharmacokinetics in mice, plasma and lung; type: in vivo; conditions: 10 mg/kg intraperitoneal
# Description: Twenty-four female mice were weighed and administered anthranilyl-AMS intraperitoneally at 10 mg/kg dose. The animals assigned for 24 hours sampling after dosing were kept in metabolic cages to collect urine and feces at an interval of 0 to 4, 4 to 8, and 8 to 24 hours. Approximately 60 μL of blood samples were collected from retro orbital plexus at 0.08, 0.25, 0.5, 1, 2, 4, 8, and 24 hours following i.p. administration. The blood samples were collected from three mice under light isoflurane anesthesia at each time point in labeled micro centrifuge tube containing K2EDTA solution. Blood samples were centrifuged at 4000 rpm for 10 minutes at 4±2° C. Immediately after plasma collection the animals were humanely euthanized by carbon dioxide asphyxiation, and lung samples were collected from each mouse at 0.08, 0.25, 0.5, 1, 2, 4, 8, and 24 hours. The tissue samples were then homogenized using ice-cold phosphate buffer saline (pH 7.4), and the total homogenate volume was three times of the tissue weight. The collected feces were weighed and homogenized with 9 volumes of ice-cold phosphate buffer saline (pH 7.4), and homogenates were stored below −70° C. until analysis. All samples were stored below −70° C. until sample analysis. The plasma and tissue samples were processed using protein precipitation with acetonitrile (ACN) and analyzed with fit for purpose LC-MS/MS method. Pharmacokinetic parameters were calculated using the non-compartmental analysis tool of Phoenix WinNonlin® (Version 6.3).
# [3] = system: MRC5 cells; assay: Cytotoxicity cell viability assay (CellTiter Glo), MRC5; type: cell-based; conditions: for IC50: Homo sapiens, MRC5, 48 hrs, luminescence; for toxicity in words, CellTiter Glo, MRC5: MRC5, luminescence readout, up to 1000 μM
# From the text: (§1) Promega Cell Titer-Glo utilizes the ATP dependent conversion of Luciferin to Oxyluciferin by a recombinant Luciferase in order to quantify the number of metabolically active cells in a sample. Quantification is possible because the number of RLU's detected is linearly proportional to the amount of ATP produced by metabolically active cells in culture at the time of lysis. Therefore, the relative cytotoxicity of each compound can be tested by quantifying the amount of ATP present in each microtiter well as compared to control groups. HepG2 and MRC5 were plated at a density of 1500 cells/25 al in well in the assay plate and allowed to settle overnight. 0.1 μL of compounds was then transferred from the source plate, into the cell assay plates. The cells were left to incubate with the compounds for 48 hrs, after which, 25 μL of Promega Cell Titer-Glo was added to each well, and allowed to incubate at room temperature with shaking for 20 minutes. RLU's for each well were then recorded on a BioTek Synergy NEO. DMSO was used as negative control
# [4] = system: HepG2 cells; assay: Cytotoxicity cell viability assay (CellTiter Glo), HepG2; type: cell-based; conditions: for toxicity in words, CellTiter Glo, HepG2: HepG2, luminescence readout, up to 1000 μM; for IC50: Homo sapiens, HepG2, 48 hrs, luminescence
# From the text: as §1
# [5] = system: HepG2 cells; assay: Cell health and viability image-based study (fluorescence microscopy), HepG2; conditions: for IC50: Homo sapiens, HepG2, imaging; for toxicity in words, imaging, HepG2: up to 1000 μM
# Description: The multiparametric assay developed surveys a number of elements of cell health simultaneously. Using a combination of 2 dyes, we are able to simultaneously measure nuclear morphology, membrane integrity and cell proliferation. All measurements are made on live cells after an incubation time of 24H. Hoechst 33342 is used to measure total number of cells, nuclear morphology and cell proliferation. The nuclear impermeable dye Syto17 is used to assess the nuclear membrane integrity by measuring the nuclear translocation of the dye when the membrane gets porous after incubation with a toxic compound. Cells were plated at a density of 1500 cells/25 al in well in a 384 wells plate the day before incubation with the drugs. The following day, 0.1 al of the source plate are added to the assay plate. Then, 25 al of a fluorophores mixture containing Hoechst 33342, Syto17 diluted in EMEM was added to each well. Plates are read after 48 h incubation in the ImageXpress instrument (Molecular Devices) using the appropriate filters. Images are analyzed using an application of MetaXpress software (Molecular Devices) and data are presented using Prism software. Low Signal Control (C23): 5 μM Staurosporine; High Signal Control (C24): DMSO.
# [6] = Hoechst 33342, read-out: Cell Count IC50, HepG2
# [7] = Syto17, read-out: Nuclear membrane integrity IC50, HepG2
SMILES,inhibition of pyocyanin production [1],AUC lung ([2]; lung),Cmax lung ([2]; lung) [ng/mL],"half-life ([2]; female, mouse, ip, lung, read-out: T1/2 lung) [h]","AUC ([2]; female, mouse, ip, plasma) [ng·h/mL]","Cmax ([2]; female, mouse, ip, plasma) [ng/mL]","half-life ([2]; female, mouse, ip, plasma, read-out: T1/2 plasma) [h]","Kp ([2]; female, mouse, lung / plasma, ip, read-out: lung/plasma ratio)",IC50 [3] [µM],"toxicity in words, CellTiter Glo, MRC5 [3]","toxicity in words, CellTiter Glo, HepG2 [4]",IC50 [4] [µM],"IC50 [5, 6] [µM]","IC50 [5, 7] [µM]","toxicity in words, imaging, HepG2 [5]"
"Nc1ccccc1C(=O)NS(=O)(=O)OC[C@H]1O[C@@H](n2cnc3c(N)ncnc32)[C@H](O)[C@@H]1O [anthranilyl-AMS, Anthranilyl-AMS]",neither inhibited pyocyanin production,63.9 μg · min/mL or μg · min/g,2000 ± 300,2.17,5000,12100 ± 2900,1.06,0.21,10.6,significant toxicity in the tested range,significant toxicity in the tested range,3.1,5.9,12.1,significant toxicity in the tested range
"Nc1ccccc1C(=O)NS(=O)(=O)NC[C@H]1O[C@@H](n2cnc3c(N)ncnc32)[C@H](O)[C@@H]1O [anthranilyl-AMSN, Anthranilyl-AMSN]",neither inhibited pyocyanin production,–,–,–,–,–,–,–,33.7,significant toxicity in the tested range,significant toxicity in the tested range,19.2,6,56.3,significant toxicity in the tested range
